Assay results published in PMC5612938, “A multiple biomarker assay for quality assessment of botanical drugs using a versatile microfluidic chip” (Scientific Reports, 2017).
Marks after values point to notes of the source that are not given here.

How the values were obtained:
[1] = target: T1, Thrombin (from human plasma) (Homo sapiens, UniProt P00734); assay: on-chip thrombin inhibition assay (S-2238 hydrolysis, absorbance 405 nm); type: biochemical; parameters: key to IC50 (μM) or inhibition rate: /: No obvious inhibition observed; conditions: for thrombin inhibition (in words): at tested concentrations
T1 construct: Thrombin (from human plasma); purchased Sigma-Aldrich; host or cells: human plasma
Description: To enhance the performance of the on-chip assay, experimental parameters such as concentrations of enzymes and substrates, substrate reaction time, and incubation time of samples and enzymes were stepwise optimized. The activity of thrombin was determined by measuring the hydrolysis of chromogenic substrate S-2238 (HD-Phe-Pip-Arg-pNA) at 405 nm. As depicted in Fig. 2a, the absorbance increased rapidly along with the elevated concentrations of thrombin, while it reached a plateau at 0.5 U/mL. […] Moreover, it was clear from Fig. 2d that the maximum inhibitory effect of QSYQ sample (I1 of Table 1 in this assay) on thrombin was observed after 60 min of incubation. Therefore, to achieve favorable response and prevent signal saturation, optimal assay conditions for thrombin were determined to be 0.2 U/mL, 0.31 mM, 30 min and 60 min for the final concentrations of thrombin and S-2238, substrate reaction time and incubation time, respectively. […] In this assay, the concentrations of ACE and FAPGG were finally set at 0.027 U/mL and 0.72 mM, where the background value was lower and the reaction time was relatively shorter (30 min).
The optimized protocol was first applied to assess the quality of 11 batches of QSYQ intermediates (Table 1). Enzyme inhibition (in percentages) was employed as an indicator of drug quality and calculated according to the following equations: thrombin inhibition (%) = [1 − (AQSYQ/Ablank)] × 100; ACE inhibition (%) = [1 − (ΔAQSYQ/ΔAblank)] × 100; where AQSYQ and Ablank were the absorbance of the test sample and the blank sample after the enzymatic reaction (the background value was subtracted), and ΔAQSYQ and ΔAblank were the absorbance decrease between 0 min and 30 min of the samples. A scatter plot was generated to display the inhibition result of thrombin and ACE simultaneously. […] Moreover, artificial abnormal samples I6, I7 and I8, each with one abnormal (pre-extracted) herb, presented relatively lower inhibitions compared with I1.
Thrombin (from human plasma), ACE (from rabbit lung), FAPGG and captopril were purchased from Sigma-Aldrich (St. Louis, USA). S-2238 was obtained from Aglyco (Beijing, China). AEBSF-HCl was purchased from Selleckchem (Houston, USA). Trizma base (Tris) was obtained from Sangon Biotech (Shanghai, China) and dimethyl sulfoxide (DMSO) from J&K Scientific (Beijing, China). All other chemicals were purchased from Sinopharm Chemical (Shanghai, China) unless otherwise indicated. 0.2 M Phosphate buffer (PB, pH 6.5), and 50 mM Tris-HCl buffer (200 mM NaCl, pH 8.3) were prepared as assay buffers for thrombin and ACE, respectively.
MBs (10 mg/mL) were diluted 10 times in PB or Tris-HCl buffer, and 10 μL of the diluted MBs (1 mg/mL) were injected into one channel of the chip using a syringe infusion pump (Harvard Apparatus, USA) and retained by an external magnet. Then, 10 μL of thrombin or ACE solution was added and incubated with MBs for two hours at room temperature to form enzyme-MB complexes. The magnet was manually controlled to move MBs back and forth to enhance the ratio of reaction. Subsequently, MBs were washed twice in assay buffer and magnetically transferred to the other channel through the fluidic bridge, whose opening and closing was controlled by a pneumatic valve. Next, 10 μL of sample solutions of tested drug and 10 μL of enzymatic substrate were sequentially infused to the channel by the pump and incubated with the enzyme. When the enzymatic reaction was finished, the MBs were retained in the channel, and air was injected into the channel from the inlet using a syringe to push all the reacted solution to a 384-well plate. The absorbance of the solution was then monitored at 405 nm (for S-2238) or 340 nm (for FAPGG) using an Infinite F200 spectrophotometer (Tecan, Männedorf, Switzerland). Moreover, after detection, the reaction channel was washed three times by assay buffer to remove unbound constituents. […]

[2] = target: T1, Thrombin (from human plasma); assay: on-chip affinity screening, binding degree by LC-MS peak area vs protein-free control (thrombin); conditions: for thrombin; [(As − Ac)/As] × 100, sample vs protein-free control, EIC peak area
Description: In addition to quality assessment, the microfluidic chip can also function as “affinity chromatography” to identify bioactive constituents from botanical drugs in a convenient and efficient manner. After the bioassay, the bound phytochemicals were dissociated from the enzymes and accurately identified by LC-MS. The material used for the chambers in microfluidic system, polydimethylsiloxane (PDMS), is apt to adsorb small molecules nonspecifically, thus a protein-free control was applied to reflect the degree of nonspecific binding of compounds to the chip. Peak areas were obtained from the extracted ion chromatography (EIC) in an ion-trap mass spectrometry (IT-MS), and binding degree (binding degree % = [(As − Ac)/As] × 100, where As and Ac were the peak area in the sample and control, respectively) was calculated to indicate binding specificity. […] All these peaks were unambiguously confirmed via comparisons with chemical standards in terms of retention time and mass spectra (Table 2), and five thrombin inhibitors (danshensu, salvianolic acid B, salvianolic acid C, rosmarinic acid and ginsenoside Rg1) and six ACE inhibitors (astragaloside IV, ononin, formononetin, calycosin, danshensu and salvianolic acid B) were preliminarily identified. […] Enzyme inhibition assays of these hit compounds were then performed to verify the screening results. […] Compounds showing an inhibition rate over 70% were subjected to IC50 measurement.
MBs (10 mg/mL) were diluted 10 times in PB or Tris-HCl buffer, and 10 μL of the diluted MBs (1 mg/mL) were injected into one channel of the chip using a syringe infusion pump (Harvard Apparatus, USA) and retained by an external magnet. Then, 10 μL of thrombin or ACE solution was added and incubated with MBs for two hours at room temperature to form enzyme-MB complexes. The magnet was manually controlled to move MBs back and forth to enhance the ratio of reaction. Subsequently, MBs were washed twice in assay buffer and magnetically transferred to the other channel through the fluidic bridge, whose opening and closing was controlled by a pneumatic valve. Next, 10 μL of sample solutions of tested drug and 10 μL of enzymatic substrate were sequentially infused to the channel by the pump and incubated with the enzyme. When the enzymatic reaction was finished, the MBs were retained in the channel, and air was injected into the channel from the inlet using a syringe to push all the reacted solution to a 384-well plate. The absorbance of the solution was then monitored at 405 nm (for S-2238) or 340 nm (for FAPGG) using an Infinite F200 spectrophotometer (Tecan, Männedorf, Switzerland). Moreover, after detection, the reaction channel was washed three times by assay buffer to remove unbound constituents. 20 μL of 80% aqueous methanol was then injected and incubated with MBs for one hour to dissociate the bound constituents. The resulting solutions of replicates were combined, evaporated by a centrifugal evaporator, reconstituted in 80% aqueous methanol, centrifuged at 10,000 rpm for 10 min, and analyzed by LC-MS for chemical identification.
An Agilent 1100 HPLC system (Agilent Technologies, Waldbronn, Germany) coupled with an LCQ Deca XP^plus IT-MS (Thermo Finnigan, San Jose, CA, USA) equipped with an electrospray ionization (ESI) interface was employed for structure elucidation of the bounded constituents. […]

Row | Structure (SMILES) | IC50 (μM) or inhibition rate ([1]; for thrombin, symbol / = no obvious inhibition) | Binding degree (%) [2] | thrombin inhibition (in words) [1] | IC50 ([1]; for thrombin)
1 | CC(C)=CCC[C@](C)(O[C@@H]1O[C@H](CO)[C@@H](O)[C@H](O)[C@H]1O)[C@H]1CC[C@]2(C)[C@@H]1[C@H](O)C[C@@H]1[C@@]3(C)CC[C@H](O)C(C)(C)[C@@H]3[C@@H](O[C@@H]3O[C@H](CO)[C@@H](O)[C@H](O)[C@H]3O)C[C@]12C [Ginsenoside Rg1] | /^g | 20.6^c % |  | 
2 | O=C(/C=C/c1ccc(O)c(O)c1)O[C@H](Cc1ccc(O)c(O)c1)C(=O)O [Rosmarinic acid] |  | 67.4^c % | good thrombin inhibitions | 92 µM
3 | O=C(/C=C/c1ccc(O)c2oc(-c3ccc(O)c(O)c3)cc12)O[C@H](Cc1ccc(O)c(O)c1)C(=O)O [Salvianolic acid C] |  | 100^c % | good thrombin inhibitions | 180 µM
